In patent US20220000852A1, “5-HT2A SEROTONIN RECEPTOR INVERSE AGONISTS OR ANTAGONISTS FOR USE IN REDUCING AMYLOID-BETA PEPTIDES AND ACCUMULATION OF AMYLOID PLAQUES” (ACADIA Pharmaceuticals Inc., priority 2016, published 2022):

Columns and labels:
ISF Aβ [1] = assay: ISF Aβ levels by hippocampal microdialysis in wild-type mice; assay type: in vivo; settings: 2.5 to 3 months, Example 3, pimavanserin 1 mg/kg, MDL 100,907 3 mg/kg
Method: Wild-type or APP/PS1+/− transgenic mice at the indicated ages (equal male and female) were implanted with unilateral hippocampal microdialysis probes at stereotaxic coordinates (bregma—3.1 mm, 2.5m lateral to midline, and 1.2 mm below dura at a 12° angle) as described (Cirrito et al. 2003; 2011). These probes contain a 38 kDa MWCO semi-permeable membrane and sample Aβ specifically from within the brain ISF. ISF Aβ was measured every 60-90 minutes for up to 72 hours after probe was inserted into the brain. Throughout each study mice was housed in RaTurn caging systems to provide freedom of movement and ad lib food and water while attached the microdialysis equipment. […] After recovery, each mouse had baseline ISF Aβ levels sampled every hour over a 6 hour period followed by administration of either vehicle (saline, pH 6.0 or M DL 100,907. Following drug administration, ISF Aβ was measured every 60-90 minutes for an additional 48 hours. At the end of each experiment ISF Aβ40 was immediately measured by sandwich ELISA. Animals were sacrificed, brains removed, then processed for histological verification of probe placement. FIG. 1A-FIG. 1D discloses the results of Example 1 (MDL 100,907 (M100), a selective 5-HT2A Serotonin Receptor Inverse Agonist on ISF levels of Aβ40 and Aβ42 in wild-type, and in young and aged APP/PS1+/− Transgenic Mice). […]

ISF Aβ [2] = assay: ISF Aβ levels by hippocampal microdialysis in 5-HT2A−/− mice; assay type: in vivo; settings: 5-HT2A KO (5-HT2A−/−) mice; Example 3; pimavanserin 1 mg/kg, MDL 100,907 3 mg/kg
Method: Following drug administration, ISF Aβ was measured every 3 hours for an additional 24 hours.

ISF Aβ [3] = assay: ISF Aβ levels by hippocampal microdialysis and sandwich ELISA in APP/PS1+/− transgenic mice; assay type: in vivo; settings: for ISF levels of Aβ: Example 1
Method: Wild-type or APP/PS1+/− transgenic mice at the indicated ages (equal male and female) were implanted with unilateral hippocampal microdialysis probes at stereotaxic coordinates (bregma—3.1 mm, 2.5m lateral to midline, and 1.2 mm below dura at a 12° angle) as described (Cirrito et al. 2003; 2011). These probes contain a 38 kDa MWCO semi-permeable membrane and sample Aβ specifically from within the brain ISF. ISF Aβ was measured every 60-90 minutes for up to 72 hours after probe was inserted into the brain. Throughout each study mice was housed in RaTurn caging systems to provide freedom of movement and ad lib food and water while attached the microdialysis equipment. After probe insertion, animals were allowed to recover for 6 hours in order for the brain to recover and the blood-brain barrier to reform. Microdialysis probe insertion was similar to the procedure described by Cirrito et al. 2003 and 2011. From hours 6-60 after microdialysis probe insertion, ISF Aβ levels were relatively constant which provides the ideal experimental window. After recovery, each mouse had baseline ISF Aβ levels sampled every hour over a 6 hour period followed by administration of either vehicle (saline, pH 6.0 or M DL 100,907. Following drug administration, ISF Aβ was measured every 60-90 minutes for an additional 48 hours. At the end of each experiment ISF Aβ40 was immediately measured by sandwich ELISA. Animals were sacrificed, brains removed, then processed for histological verification of probe placement. FIG. 1A-FIG. 1D discloses the results of Example 1 (MDL 100,907 (M100), a selective 5-HT2A Serotonin Receptor Inverse Agonist on ISF levels of Aβ40 and Aβ42 in wild-type, and in young and aged APP/PS1+/− Transgenic Mice). […] APP/PS1+/− transgenic mice at the indicated ages (equal male and female) were implanted with unilateral hippocampal microdialysis probes at stereotaxic coordinates (bregma—3.1 mm, 2.5m lateral to midline, and 1.2 mm below dura at a 12° angle) as described (Cirrito et al. 2003 and 2011) and ISF Aβ levels measured as described in Example 1. […]

beta amyloid = settings: cited from earlier work; for beta amyloid levels and Plaque Burden: Mouse Model of AD
amyloid plaque = assay: Histological staining of hippocampus for amyloid plaque load after chronic treatment of APP/PS1+/− mice; assay type: in vivo
Description: (§1) Incisions were closed by suture or staple to insure the pumps remained in place. Every 5 weeks pumps were removed and new full pumps implanted in the same manner at a different location on the back to provide continuous drug delivery over the 4 month period. In parallel, age and gender matched cohorts of APP/PS1+/− transgenic mice were sacrificed so that amyloid plaque and Aβ levels at the start of treatment could be compared to mice at the end of treatment. […] At the end of the 4 month treatment period, mice were sacrificed, brains removed, and divided into hemispheres. One hemisphere per mouse was processed for guanidine extraction and biochemical analysis by ELISA of Aβ40 and Aβ42 levels in hippocampus as described in Cirrito et al., 2011, with the 5 Molar Guanidine extracts representing the insoluble fractions of Aβ40 and Aβ42. The insoluble fraction is believed to represent the harmful amyloid plaque deposits that are characteristic of Alzheimer's disease. The other hemisphere was used to perform histological staining and analysis of amyloid plaque growth. Start indicates the age and gender matched cohorts sacrificed at the start of the study. Guan indicates 5 Molar Gaunidine. FIG. 4A) 5M Gaunidine fraction of Aβ40 and Aβ42, all genders. FIG. 4B) 5M Guanidine fraction, male and female. […]

Aβ40 and Aβ42 [4] = assay: Aβ40 and Aβ42 in CSF (ELISA) after chronic treatment of APP/PS1+/− mice; assay type: in vivo; settings: 6 month old APP/PS1 mice treated for 4 months; Example 8
Description: as §1, with “disease.” for “disease. The other hemisphere was used to perform histological staining and analysis of amyloid plaque growth. Start indicates the age and gender matched cohorts sacrificed at the start of the study. Guan indicates 5 Molar Gaunidine. FIG. 4A) 5M Gaunidine fraction of Aβ40 and Aβ42, all genders. FIG. 4B) 5M Guanidine fraction, male and female.”
Male and Female APP/PS1+/− transgenic mice, age 6 months, were implanted with Alzet osmotic minipumps and treated as described in Example 4. At the end of the 4 month treatment period, mice were sacrificed, CSF removed using the method of DeMattos et al., 2002 (see page 230, Materials and Methods), and Aβ40 and Aβ42 levels analyzed by ELISA. […]

Aβ40 and Aβ42 [5] = assay: Aβ40 and Aβ42 in 5M guanidine hippocampal extracts (ELISA) after chronic treatment of APP/PS1+/− mice; assay type: in vivo
Description: Incisions were closed by suture or staple to insure the pumps remained in place. Every 5 weeks pumps were removed and new full pumps implanted in the same manner at a different location on the back to provide continuous drug delivery over the 4 month period. In parallel, age and gender matched cohorts of APP/PS1+/− transgenic mice were sacrificed so that amyloid plaque and Aβ levels at the start of treatment could be compared to mice at the end of treatment. […] At the end of the 4 month treatment period, mice were sacrificed, brains removed, and divided into hemispheres. One hemisphere per mouse was processed for guanidine extraction and biochemical analysis by ELISA of Aβ40 and Aβ42 levels in hippocampus as described in Cirrito et al., 2011, with the 5 Molar Guanidine extracts representing the insoluble fractions of Aβ40 and Aβ42. The insoluble fraction is believed to represent the harmful amyloid plaque deposits that are characteristic of Alzheimer's disease. The other hemisphere was used to perform histological staining and analysis of amyloid plaque growth. Start indicates the age and gender matched cohorts sacrificed at the start of the study. Guan indicates 5 Molar Gaunidine. FIG. 4A) 5M Gaunidine fraction of Aβ40 and Aβ42, all genders. FIG. 4B) 5M Guanidine fraction, male and female.
Male and Female APP/PS1+/− transgenic mice, age 6 months, were implanted with Alzet osmotic minipumps and treated as described in Example 4. At the end of the 4 month treatment period, mice were sacrificed, brains removed, and divided into hemispheres. In parallel, age and gender matched cohorts of APP/PS1+/− transgenic mice were sacrificed so that amyloid plaque and Aβ levels at the start of treatment could be compared to mice at the end of treatment. Start indicates the age and gender matched cohorts sacrificed at the start of the study. Guan indicates 5 Molar Gaunidine. FIG. 6A) 5M Gaunidine fraction of Aβ40 and Aβ42, all genders. FIG. 6B) F) 5M Guanidine fraction of Aβ40 and Aβ42, male and female. […] Example 7.

## COc1cccc([C@H](O)C2CCN(CCc3ccc(F)cc3)CC2)c1OC [M100,907, (R)-(+)-α-(2,3-Dimethoxyphenyl)-1-[2-(4-fluorophenyl)ethyl]-4-piperinemethanol]
ISF Aβ [1]
  Brain ISF Aβ levels: Normalize Brain ISF Aβ Levels
ISF Aβ [2]
  Aβ-lowering effect on ISF Aβ: abolished
ISF Aβ [3]; old (12 month old, fully formed amyloid plaques) APP/PS1 mice
  ISF levels of Aβ: robustly lowered levels of Aβ in a dose dependent manner
ISF Aβ [3]; young (3 month old, pre-plaque) APP/PS1 mice
  ISF levels of Aβ: robustly lowered levels of Aβ in a dose dependent manner

## CN(C)CC(c1ccc(O)cc1)C1(O)CCCCC1 (centres unmarked) [desvenlafaxine]
Beta amyloid
  beta amyloid levels and Plaque Burden: lower beta amyloid levels and Plaque Burden

## CNCCC(Oc1ccc(C(F)(F)F)cc1)c1ccccc1 (centres unmarked) [fluoxetine]
Beta amyloid
  beta amyloid levels and Plaque Burden: lower beta amyloid levels and Plaque Burden

## CC(C)COc1ccc(CNC(=O)N(Cc2ccc(F)cc2)C2CCN(C)CC2)cc1.O=C(O)C(O)C(O)C(=O)O [pimavanserin, N-(1-methylpiperidin-4-yl)-N-(4-fluorophenylmethyl)-N′-(4-(2-methylpropyloxy)phenylmethyl)carbamide]
Amyloid plaque; treatment from age 4.5 months for 4 months, Example 5
  amyloid plaque in hippocampus (histological staining), compared to vehicle treated mice: highly significant decreases of amyloid plaque
Amyloid plaque; treatment from age 6 months for 4 months, Example 7
  amyloid plaque in hippocampus (histological staining), compared to vehicle treated mice: highly significant decreases of amyloid plaque
Aβ40 and Aβ42 [4]
  Aβ in CSF: significantly lowered Aβ
ISF Aβ [1]
  Brain ISF Aβ levels: Normalize Brain ISF Aβ Levels
Aβ40 and Aβ42 [5]; male mice, Example 6B
  Aβ40 (guanidine fraction) in male mice, treated group (age 10 months) compared to start group (age 6 months): reduction in Aβ40
Aβ40 and Aβ42 [5]; treatment from age 4.5 months for 4 months, osmotic minipump 3 mg/kg/day, Example 4
  levels of the guanidine fraction of Aβ40 and Aβ42 in hippocampus, compared to vehicle treated mice: highly significant reduction
Aβ40 and Aβ42 [5]; treatment from age 4.5 months for 4 months, Example 4
  levels of Aβ40 and Aβ42 (guanidine fraction), treated group at end compared to 'Start' group: not a significant difference
Aβ40 and Aβ42 [5]; treatment from age 6 months for 4 months, osmotic minipump, Example 6
  levels of the guanidine fraction of Aβ40 and Aβ42 in hippocampus, compared to vehicle treated mice: highly significant reduction
Aβ40 and Aβ42 [5]; treatment from age 6 months for 4 months, Example 6
  levels of Aβ40 and Aβ42 (guanidine fraction), treated group at end compared to 'Start' group: not a significant difference
ISF Aβ [3]; APP/PS1 mice, single bolus doses or continuous infusion, Example 2
  ISF Aβ: robustly lowered ISF Aβ in APP/PS1 mice in a dose dependent manner

## NCCc1c[nH]c2ccc(O)cc12 [serotonin]
Beta amyloid; direct infusion into the hippocampus
  ISF Aβ40 and Aβ42 levels: reduced ISF Aβ40 and Aβ42 levels
